Results as given in US10722518B2, “Oxazine derivative for use in the treatment or prevention of cerebral amyloid angiopathy” (Novartis AG, priority 2016, dated 2020).
Where two headings read alike, the source gives them in different places.

Columns and labels:
[1] = system: Aβ40 levels in APOE4-TR mouse brain; assay: Acute PK/PD dose-response study in APOE4-TR mice: Aβ40 in forebrain (MSD assay); format: in vivo; details: for Mini AUEC (brain Aβ40): 4 h and 24 h; for Aβ40 reduction, range over doses: 3, 10 and 30 μmol/kg
Method: Male and female transgenic homozygous APOE4-TR (B6. 129P2-Apoe^tm3(APOE*4)Mae N8, Taconic, Model 001549, 3-5 months old, n=48) were obtained from Taconic.
Compound 1 was formulated as a suspension. Vehicle or compound was given by oral administration in a volume of 10 ml/kg once. Vehicle: 0.1% Tween80 in 0.5% Methylcellulose in water. […]
Frozen mouse forebrains were weighed and homogenized in 9 volumes (w/v) of ice-cold TBS-Complete (20 mM Tris-HCl pH 7.4, 137 mM NaCl, 1× Complete [Protease Inhibitor Cocktail Tablets: 1 836 145, Roche Diagnostics GmbH, Penzberg, Germany]) by sonication (90% duty cycle, output control 5, 40-55 pulses, [Sonifier 450, Branson]). After homogenization several 50 μl aliquots were prepared for analysis and were stored at −80° C.
Endogenous Aβ40 in mice was determined with the Meso Scale Discovery (MSD) 96-well MULTI-ARRAY human/rodent (4G8) Aβ40 Ultrasensitive Assay (#K110FTE-3, Meso Scale Discovery, Gaithersburg, USA). The assay was performed according to the manufacturer's instructions except for the calibration curve and the sample preparations. TritonX-100 (TX-100) soluble Aβ40 was extracted from forebrain with 1% TX-100 using a 50 μl aliquot of each 1:10 forebrain homogenate, mixed with 50 μl 2% TX-100 in TBS complete (20 mM Tris-HCl pH 7.4, 137 mM NaCl, 1× Complete [Protease Inhibitor Cocktail Tablets: 1 836 145, Roche Diagnostics GmbH, Penzberg Germany]) to reach a final concentration of 1% TX-100 and a 1:20 forebrain dilution. The samples were incubated for 15 min on ice and vortexed every 5 min. The samples were ultra-centrifuged (100000×g, 4° C., 15 min) and 50 μl of the clear supernatants were transferred to fresh tubes. For the Aβ40 assay the supernatants were further diluted 1:5 in 3% Blocker A solution (from kit) to a final forebrain dilution of 1:100 and applied to the plate.
The calibration curve was prepared in a corresponding dilution of 1% Blocker A solution spiked with synthetic Aβ1-40 peptide (1.56-100 pg/ml) except for non-transgenic mouse brain samples: In this case, the calibration curve was prepared in a correspondingly diluted APP knockout mouse forebrain spiked with synthetic Aβ1-40 peptide (1.56-100 pg/ml). For all samples and standards 25 μl were applied per well. For each determination duplicate wells were done. The mean values from the duplicate wells were used for calculations.

[2] = both, APOE4-TR, mouse, in vivo
Method: Vehicle or compound was given by oral administration in a volume of 10 ml/kg once. Vehicle: 0.1% Tween80 in 0.5% Methylcellulose in water.
The right brain was fixed in 4% paraformaldehyde, washed in PBS and then embedded in paraffin for possible future histological analyses.

[3] = 3-month dose-ranging study: plasma pharmacokinetics on Day 91; format: in vivo; details: human, oral, read-out: expected plasma Cmax,ss
APP23 mice = assay: 13-week oral safety study in aged APP23 mice: post-mortem macroscopic and brain microscopic examination (H&E, Perls' Prussian blue); format: in vivo, mouse
Text: Sections of brain were collected at necropsy from all scheduled animals. […] Rest of the brain was fixed in 10% neutral-buffered formalin.
Four brain sections were processed and stained with hematoxylin and eosin (H&E) and Perls' Prussian blue for hemosiderin deposits, levels 2, 3, 4, as described in Bolon B et al., 2013, and one additional slide at hypothalamus level (level 2′).
Procedure for brain collection: Cerebellum was separated from cerebrum. Remaining cerebrum (from the anterior to level 5) was transferred into formalin for pathology.
Brain sections stained with haematoxylin and eosin and with Perls' Prussian blue, were examined under a light microscope. The distribution, size and staining intensity of hemosiderin deposits in Perls' Prussian blue-stained sections were assessed based on the grading scheme in Table 37.

[4] = aged APP23 mice, brain, H&E, after 3 months treatment
[5] = aged APP23 mice, brain, H&E, after 3 months treatment, Grade 1 = minimal
[6] = aged APP23 mice, brain, H&E, after 3 months treatment, grade 2 = slight
[7] = aged APP23 mice, brain, after 3 months treatment
[8] = aged APP23 mice, brain, after 3 months treatment, Grade 1 = minimal
[9] = aged APP23 mice, brain, after 3 months treatment, grade 2 = slight

For `C[C@@]1(c2nc(NC(=O)c3ncc(C(F)(F)F)cc3Cl)ccc2F)CO[C@@](C)(C(F)(F)F)C(N)=N1` [Compound 1, N-(6-((3R,6R)-5-amino-3,6-dimethyl-6-(trifluoromethyl)-3,6-dihydro-2H-1,4-oxazin-3-yl)-5-fluoropyridin-2-yl)-3-chloro-5-(trifluoromethyl)picolinamide], the “% reduction vs vehicle (brain Aβ40)” value ([1]; 3 μmol/kg acute, 4 h) was 43%, the “Average Aβ40 brain ± SD” value ([1]; 3 μmol/kg acute, 4 h) was 0.114 ± 0.024 pmol/g and the “Mini AUEC (brain Aβ40)” value ([1]; 3 μmol/kg acute) was 32%. For the same molecule, the “% reduction vs vehicle (brain Aβ40)” value ([1]; 3 μmol/kg acute, 24 h) was 20%, the “Average Aβ40 brain ± SD” value ([1]; 3 μmol/kg acute, 24 h) was 0.160 ± 0.033 pmol/g and the “% reduction vs vehicle (brain Aβ40)” value ([1]; 10 μmol/kg acute, 4 h) was 63%. The “Average Aβ40 brain ± SD” value ([1]; 10 μmol/kg acute, 4 h) was 0.074 ± 0.014 pmol/g, the “Mini AUEC (brain Aβ40)” value ([1]; 10 μmol/kg acute) was 47% and the “% reduction vs vehicle (brain Aβ40)” value ([1]; 10 μmol/kg acute, 24 h) was 31%. For the same molecule, the “Average Aβ40 brain ± SD” value ([1]; 10 μmol/kg acute, 24 h) was 0.139 ± 0.041 pmol/g, the “% reduction vs vehicle (brain Aβ40)” value ([1]; 30 μmol/kg acute, 4 h) was 77% and the “Average Aβ40 brain ± SD” value ([1]; 30 μmol/kg acute, 4 h) was 0.046 ± 0.006 pmol/g. The “Mini AUEC (brain Aβ40)” value ([1]; 30 μmol/kg acute) was 72%, the “% reduction vs vehicle (brain Aβ40)” value ([1]; 30 μmol/kg acute, 24 h) was 66% and the “Average Aβ40 brain ± SD” value ([1]; 30 μmol/kg acute, 24 h) was 0.068 ± 0.021 pmol/g. The “Aβ40 reduction, range over doses” value ([1]; 4 h) was 43-77%, the “Aβ40 reduction, range over doses” value ([1]; 24 h) was 20-66% and the Emax ([1]; Mus musculus, 30 μmol/kg acute, read-out: maximal effect on Aβ reduction in the brain) was > 70%. For the same molecule, the “exposure reduction 4 h/24 h” value [2] was 2-5 fold, the “AUCbrain (AUC0-24 h)” value ([2]; 3 umol/kg) was 8.67 µmol·h/kg and the “AUCbrain (AUC0-24 h)” value ([2]; 10 umol/kg) was 15.83 µmol·h/kg. The “AUCbrain (AUC0-24 h)” value ([2]; 30 umol/kg) was 49.82 µmol·h/kg, the Cmax ([3]; once daily dose of 15 mg) was 70 to 170 ng/mL and the Cmax ([3]; once daily dose of 50 mg) was 200 to 500 ng/mL. For the same molecule, the Blood vessel inflammation (APP23 mice; 3 months treatment) was “least marked”, the “mineralisation of plaques in the thalamus” value (APP23 mice; 3 months treatment) was “no indication of an effect” and the “thrombus formation in affected blood vessels or small areas of previous necrosis (infarct)” value (APP23 mice; 3 months treatment) was “not”. The “extent of plaque formation” value (APP23 mice; 3 months treatment, compared to the other groups) was “appeared reduced in some”, the “Amyloid plaques, % affected” value (APP23 mice; [4]) was 100% and the “Haemorrhage, % affected” value (APP23 mice; [4]) was 7%. The “Inflammation, vessel, % affected” value (APP23 mice; [4]) was 27%, the “Haemorrhage, number of animals with Grade 1” value (APP23 mice; [5]) was 1 and the “Inflammation, vessel, number of animals with Grade 1” value (APP23 mice; [5]) was 4. For the same molecule, the “Haemorrhage, number of animals with Grade 2” value (APP23 mice; [6]) was 0, the “Inflammation, vessel, number of animals with Grade 2” value (APP23 mice; [6]) was 0 and the “Amyloid plaques, number of animals with Grade 2” value (APP23 mice; aged APP23 mice, brain, H&E, after 3 months treatment, grade 2 = slight (notably fewer plaques than controls)) was 4. The “Amyloid plaques, number of animals with Grade 3” value (APP23 mice; aged APP23 mice, brain, H&E, after 3 months treatment, grade 3 = moderate (extent in controls)) was 11, the “Haemosiderin (Perls' staining), % affected” value (APP23 mice; [7]) was 47% and the “Infarct, % affected” value (APP23 mice; [7]) was 0%. The “Mineralisation, % affected” value (APP23 mice; [7]) was 13%, the “Thrombus, % affected” value (APP23 mice; [7]) was 0% and the “Haemosiderin (Perls' staining), number of animals with Grade 1” value (APP23 mice; [8]) was 7. For the same molecule, the “Infarct, number of animals with Grade 1” value (APP23 mice; [8]) was 0, the “Mineralisation, number of animals with Grade 1” value (APP23 mice; [8]) was 2 and the “Thrombus, number of animals with Grade 1” value (APP23 mice; [8]) was 0. The “Haemosiderin (Perls' staining), number of animals with Grade 2” value (APP23 mice; [9]) was 0, the “Mineralisation, number of animals with Grade 2” value (APP23 mice; [9]) was 0 and the “Thrombus, number of animals with Grade 2” value (APP23 mice; [9]) was 0. The “Haemosiderin (Perls' staining), number of animals with Grade 3” value (APP23 mice; aged APP23 mice, brain, after 3 months treatment, grade 3 = moderate) was 0.
